Where “and” joins values, the source holds several entries; their conditions need not be identical. Identical values can stand only once. Entries after “also recorded” stand apart in the source; their conditions may differ.
How the values were obtained:
[1] = enzymes that metabolize the drug; cited from earlier work
[2] = reported peak concentration in a patient population associated with standard dosing; cited from earlier work
[3] = test system: pooled human liver microsomes; test: In vitro metabolism of ivermectin in pooled human liver microsomes, alone and co-incubated with an antimalarial (CYP-mediated DDI)
Description: Pooled human liver microsomes (containing 20 mg/mL protein) were thawed on ice, and the reactions were conducted in a 96-well plate (1 mL, Agilent Technologies, Santa Clara, CA, USA). The assay buffer consisted of 0.1 M potassium phosphate buffer (pH 7.4). The premix solutions for each condition were prepared with specific volumes of each component, as outlined in Table S1. The premix solution was prepared by combining ivermectin, antimalarial drug, microsomes, and buffer. Three replicates of each premix solution were prepared, and 475 µL of each premix was transferred into separate wells of the 96-well plate. The plate was incubated at 37 °C for 5 min with gentle shaking (300 rpm). Following incubation, 25 µL of 20 mM NADPH was added to each well, and the solution was mixed thoroughly. The final incubation mixture (500 µL) contained a total microsome concentration of 0.53 mg/mL. To monitor the metabolism of ivermectin, 50 µL from each well was collected at 0, 15, 30, 45, 60, 90, 120, and 150 min and transferred to a new plate containing 200 µL of cold acetonitrile and 100 ng/mL of ivermectin-D2 (internal standard). The collection plate was kept on ice during sampling. After sample collection, the plate was sealed and centrifuged at 1,100 × g for 15 min at 4 °C. A 100 µL aliquot of the clear supernatant was transferred to a new plate for immediate LC–MS analysis.
The LC system consisted of an Agilent 1260 quaternary pump, an Agilent 1260 autosampler (set at 6 °C), and an Agilent 1290 column compartment (set at 40 °C). Five µL of sample was analysed on an Acquity UPLC HSS T3 reversed-phase column (2.1 × 100 mm, 1.8 μm) with a precolumn (2.1 × 5 mm, 1.8 μm) under a linear gradient. The mobile phase consisted of water with 10 mM ammonium acetate and 0.1% formic acid (A) and acetonitrile:water (95:5, v/v) with 10 mM ammonium acetate and 0.1% formic acid (B), at a flow rate of 0.3 mL/min. The gradient started at 75% B, ramped to 90% B over 2 min, held at 90% B for 4 min, and returned to 75% B in 0.1 min, with a 3.9-min re-equilibration. A Sciex TripleTOF 5600 + Q-TOF MS with DuoSpray ESI was used for LC–MS analysis in the positive mode, with source conditions set at 40 psi for ion source gas 1 (GS1) and gas 2 (GS2), 30 psi for curtain gas (CUR), 4,500 V for ion spray voltage floating (ISVF), 350 °C source temperature (TEM), and 120 V declustering potential (DP). Data were acquired from m/z 100–1,000 in TOF–MS scan mode using Analyst TF Software 1.8, and ivermectin quantification (ivermectin peak area/internal standard peak area) was performed with MultiQuant Software (Sciex, Framingham, MA, USA) with a high resolution TOF–MS scan mode.
The metabolism rate of ivermectin was evaluated based on the normalized peak area (%) of ivermectin over a total of 150 min of incubation. […] This normalized value was further adjusted relative to the pre-incubation ivermectin peak area (zero-minute sample) within a sample collection series, resulting in final ivermectin concentrations expressed as relative peak areas. All individual ivermectin concentrations (relative peak area) from triplicate incubations were fitted to an ordinary linear regression, separately conducted for ivermectin alone and ivermectin co-incubated with an antimalarial. The estimated (±95% CI) slope and intercept of the regression analysis was derived using GraphPad Prism v.10.4.2. Additionally, the slopes of the regression analyses were compared statistically between ivermectin alone and when co-incubation with an antimalarial, as an automated output from the regression analysis. Furthermore, the relative difference (%) in in vitro metabolism rate (i.e. difference between regression slopes) for ivermectin alone and when co-incubated with an antimalarial was calculated as shown in Eq. 1.

[4] = Rhesus macaques; cited from earlier work

SMILES	Metabolism pathway [1]	Reported Cmax (ng/ml) [2]	also measured
CCN(CC)Cc1cc(Nc2ccnc3cc(Cl)ccc23)ccc1O [Amodiaquine]	Major CYP2C8; Minor CYP1A1, CYP1B1 [23, 28]	–	–
CO[C@H]1O[C@@H]2O[C@@]3(C)CC[C@H]4[C@H](C)CC[C@@H]([C@H]1C)[C@@]24OO3 [Artemether]	Major CYP2B6; Minor CYP3A4 [19, 20, 26]	186 [11] ng/ml	–
C[C@H]1[C@H](OC(=O)CCC(=O)O)O[C@@H]2O[C@@]3(C)CC[C@H]4[C@H](C)CC[C@@H]1[C@@]24OO3 [Artesunate]	–	244 [11] ng/ml	–
O=C1C(O)=C([C@H]2CC[C@H](c3ccc(Cl)cc3)CC2)C(=O)c2ccccc21 [Atovaquone]	Major CYP3A4; Minor CYP2C9 [21, 22]	13,300 [11] ng/ml	–
CCN(CC)CCCC(C)Nc1ccnc2cc(Cl)ccc12 (centres unmarked) [Chloroquine]	–	1430 [11] ng/ml	DDI effect on the in vitro metabolism rate of ivermectin (class in words) [3]: substantial; Exposure to ivermectin on co-administration [4]: increased exposure to ivermectin
C[C@H]1[C@@H](O)O[C@@H]2O[C@@]3(C)CC[C@H]4[C@H](C)CC[C@@H]1[C@@]24OO3 [Dihydroartemisinin]	Glucuronidation by UGT1A9 and UGT2B7 [29]	421 [3] ng/ml	–
CC[C@H](C)[C@H]1O[C@]2(CC[C@@H]1C)C[C@@H]1C[C@@H](C/C=C(\C)[C@@H](O[C@H]3C[C@H](OC)[C@@H](O[C@H]4C[C@H](OC)[C@@H](O)[C@H](C)O4)[C@H](C)O3)[C@@H](C)/C=C/C=C3\CO[C@@H]4[C@H](O)C(C)=C[C@@H](C(=O)O1)[C@]34O)O2 [Ivermectin]	primarily metabolized by CYP3A4 and to a lesser extent CYP3A5 and CYP2C8; also recorded: Major CYP3A4; Minor CYP3A5, CYP2C8 [31, 32]	119 [3] ng/ml	Intercept (95%CI) of linear regression of ivermectin relative peak area (%), ivermectin alone ([3]; ivermectin 1 µM alone, control run paired with the antimalarial of the same table line): 97.6 (95.4-99.9) and 96.1 (94.1-98.1) and 98.0 (96.7-99.2) and 97.7 (96.2-99.2) and 98.0 (96.6-99.4) and 100.1 (98.5-101.7) and 97.8 (95.9-99.8)
CCCCN(CCCC)CC(O)c1cc(Cl)cc2c1-c1ccc(Cl)cc1/C2=C/c1ccc(Cl)cc1 (centres unmarked) [Lumefantrine]	CYP3A4 [19, 20]	25,700 [11] ng/ml	–
OC(c1cc(C(F)(F)F)nc2c(C(F)(F)F)cccc12)C1CCCCN1 (centres unmarked) [Mefloquine]	–	2700 [11] ng/ml	DDI effect on the in vitro metabolism rate of ivermectin (class in words) [3]: substantial
Clc1ccc2c(N3CCN(CCCN4CCN(c5ccnc6cc(Cl)ccc56)CC4)CC3)ccnc2c1 [Piperaquine]	Major CYP3A4; Minor CYP2C8 [14]	568 [11] ng/ml	–
COc1cc(NC(C)CCCN)c2ncccc2c1 (centres unmarked) [Primaquine]	Major CYP2D6; Minor CYP1A2 [23, 30]	167 [11] ng/ml	–
[H]/N=C(\N/C(=N/[H])Nc1ccc(Cl)cc1)NC(C)C [Proguanil]	CYP2C19 [18]	750 [11] ng/ml	–
CCc1nc(N)nc(N)c1-c1ccc(Cl)cc1 [Pyrimethamine]	CYP1B1, CYP2C9 [23]	280 [11] ng/ml	DDI effect on the in vitro metabolism rate of ivermectin (class in words) [3]: little impact; Intercept (95%CI) of linear regression of ivermectin relative peak area (%), combination ([3]; human, pH 7.4): 96.7 (95.0-98.3); Slope (95%CI) of linear regression of ivermectin relative peak area (%) over time, combination ([3]; human, pH 7.4): -0.21 (-0.24 to -0.19)
COc1ccc2nc3cc(Cl)ccc3c(Nc3cc(CN4CCCC4)c(O)c(CN4CCCC4)c3)c2n1 [Pyronaridine]	CYP1A2, CYP2D6, CYP3A4 [24]	571 [12] ng/ml	–
COc1ncnc(NS(=O)(=O)c2ccc(N)cc2)c1OC [Sulfadoxine]	Acetylation by N-Acetyltransferase 2 [25]	130,000 [11] ng/ml	–
COc1cc(C)c2c(Oc3cccc(C(F)(F)F)c3)c(OC)cc(NC(C)CCCN)c2n1 (centres unmarked) [Tafenoquine]	CYP2D6 [27]	300 [13] ng/ml	–
